# Reference: article PMC11339918, “Extracellular Domain of IL-10 Receptor Chain-2 (IL-10R2) and Its Arginine-Containing Peptides Are Susceptible Substrates for Human Prostate Kallikrein-2 (KLK2)” (Biochemistry, 2024)
# *: point of attachment. EDDnp = O=[N+]([O-])c1ccc(NCCN*)c([N+](=O)[O-])c1
# B1: recombinant IL-10: recombinant IL-10 (10 ng/mL) used in BMDM activation assay (protein, UniProt P18893 19-178, looked up)
# Interleukin-10: SRGQYSREDNNCTHFPVGQSHMLLELRTAFSQVKTFFQTKDQLDNILLTDSLMQDFKGYLGCQALSEMIQFYLVEVMPQAEKHGPEIKEHLNSLGEKLKTLRMRLRRCHRFLPCENKSKAVEQVKSDFNKLQDQGVYKAMNEFDIFINCIEAYMMIKMKS
# Key:
# [1] = system: KLK2; assay: Effects of salts and glycosaminoglycans on KLK2 hydrolysis of Abz-KLRSSKQ-EDDnp; assay type: biochemical, human; conditions: 20 mM Tris–HCl, 1 mM EDTA, 5.0 μM Abz-KLRSSKQ-EDDnp, [E] = 1.58 nM, 37 °C, pH 8.0
# Description: Bovine lung heparin was prepared as previously reported;[16] dermatan sulfate (12 000 Da) and chondroitin sulfate (25 000 Da) were purchased from Seikagaku Kogyo Co. (Tokyo, Japan), and heparan sulfate (16 000 Da) from the bovine lung was a generous gift from Dr. P. Bianchini (Opocrin Research Laboratories, Modena, Italy).
# Figure 1 KLK2 hydrolysis of Abz-KLRSSKQ-EDDnp. (A) Effects of sodium citrate, sodium sulfate, and sodium chloride on the FRET-peptide hydrolysis by KLK2. (B) pH profile for the KLK2 activity. (C) Effects of glycosaminoglycans on KLK2 activity. Assays were carried out in 20 mM Tris–HCl, 1 mM EDTA, and 5.0 μM substrate; [E] = 1.58 nM at 37 °C and pH 8.0 for experiments in (A and C).
# [2] = system: KLK3; assay: Hydrolysis by KLK3 of IL-10R2-derived FRET peptides containing F or Y; assay type: biochemical, human; conditions: 2 nM KLK3, 20 mM Tris-HCl, 1 mM EDTA, 1.5 M sodium citrate, pH 7.8, 37 °C
# From the text: Obtained from a baculovirus-insect cell line system, purified, and activated as previously reported,[14] MUGB (4-methylumbelliferyl p-guanidino benzoate hydrochloride) was used for the spectrofluorimetric determination of molar concentrations of active KLK2.[15] KLK3 was obtained and assayed as previously reported.[3] […]
# FRET Peptides with F FRET Peptides with Y
# Abz-MNSVNFKNIL-Q-E DD np Abz-FTAQYLSYR-Q-EDD np
# Abz-WESPAFAKGN-Q-EDD np Abz – AQYL SYRIF-Q-EDDnp
# Abz-KGNLTFT AQY-Q-EDDnp Abz-SSLSKYGDHT-Q-EDD np
# Abz-LSYRIFQDKA-Q-EDD np Abz-KIENEYET WT-Q-EDDnp
# Abz-LTEADFSSLS-Q-EDD np Abz-TMKNVYNSWT-Q-ED Dnp
# Abz-RVRAEFADEH-Q-EDDnp Abz-NSWTYNVQ-Q-EDDnp
# Abz-HSDWVNITFAPVD-Q-EDDnp Abz-NVQYWKNG-Q-EDDnp
# Abz-SLHMRFL AP K-Q-EDD np Abz-QITPQYDFEV-Q-EDD np
# Abz-GTDEKFQ IT P-Q-EDD np Abz – EPWTTYAVQR-Q-EDD np
# Conditions of reactions: 2 nM KLK3, 20 mM Tris -HCl, 1 mM EDTA, 1.5 M sodium citrate, pH 7.8, at 37 °C.
# The sequence o f FRET peptide with F or Y in the middle of the sequence can be identiﬁed in the IL-
# 10R2 ectodomain sequence around F or Y, as shown b e l o w. Cysteines were substituted by Alanine (A)
# 1 MAWSLGSWLGGCLLVSALGMVPPPENVRMNSVNFKNILQWESPAFAKGNLTFTAQYLSYR.
# 61 IFQDKCMNTTLTECDFSSLSKYGDHTLRVRAEFADEHSDWVNITFCPVDDTIIGPPGMQV.
# 121 EVL ADSLHMR FL APKIENEY ET W TMKNVYN SWTYNVQYWK NGTDEKFQIT PQYDFEVLRN.
# 181 LEPW TTYCVQ VRGF LPDRNK AGEWSEPVCE QTTHDETVPS.
# [3] = system: BMDM cells; assay: BMDM activation with LPS/IFN-γ: NO, TNF-α and IL-12 p40 in supernatant; assay type: cell-based, C57Bl/6 mice; conditions: 72 h, Griess, ELISA; for IL-10 inhibition of NO, TNF-α and IL-12 p40 generation in pretreated BMDM: pretreatment 7.5 μg/mL for 2 h, then LPS 200 ng/mL / IFN-γ 100 U/mL ± IL-10 10 ng/mL
# Description: BMDM were obtained from C57Bl/6 mice and used as previously reported.[17]
# For BMDM activation assays in vitro, cells were plated at a density of 10^5 cells/mL in 96-well plates at 37 °C in the absence and presence of KLK2 or KLK3 (7.5 μg/mL) for 2 h. The cells were then washed with PBS and treated with LPS (200 ng/mL)/IFN-γ (100 U/mL) stimuli in the presence or absence of recombinant IL-10 (10 ng/mL). The activation response of BMDM cells was evaluated after 72 h by quantification of nitric oxide (NO), TNF-α, and IL-12 p40 in the supernatant of BMDM cell cultures. NO was quantified using the Griess assay,[19] and the cytokines TNF-α and IL-12 p40 were quantified using sandwich enzyme-linked immunosorbent assay (ELISA) kits (B.D. Biosciences) following the manufacturer’s instructions.
# Figure 3 KLK2 converts BMDM cells to a pro-inflammatory status characterized by maintaining NO, TNF-α, and IL-12p40 levels, even in the presence of recombinant IL-10. BMDM cells from C57Bl/6 mice were incubated in a 96-well plate (1 × 10^5 cells) with KLK2 (7.5 μg/mL) or KLK3 (7.5 μg/mL) for 2 h. After this, cells were washed and incubated with or without lipopolysaccharide (LPS) (200 ng/mL), IFN-γ (IFN), and recombinant IL-10 (IL10). (A) NO quantified in the culture supernatant by the Griess method. (B) TNF-α and (C) IL-12 p40 cytokines were quantified by ELISA in culture supernatants. MΦ = control macrophages. * p-value <0.001, analyzed by ANOVA with Tukey’s multiple comparisons.
molecule,measurement,setting,value
O=C([O-])CC(O)(CC(=O)[O-])C(=O)[O-].[Na+].[Na+].[Na+] [sodium citrate],effect of salt on KLK2 activity,[1],ten times more efficient activator of KLK2 than sodium sulfate
"Abz-WESPAFAKGN-Q-EDD np (Abz-WESPAFAKGNQ-EDDnp) [Abz-WESPAFAKGN-Q-EDDnp, FRET peptide with F derived from IL-10R2 ectodomain]",hydrolysis by KLK3 (in words),[2],resistant to hydrolysis by KLK3
"KLK2: human prostate kallikrein-2, recombinant, from a baculovirus-insect cell line system","IL-10 inhibition of NO, TNF-α and IL-12 p40 generation in pretreated BMDM",[3],these IL-10 inhibitory effects were not observed
KLK3: human kallikrein-related peptidase 3 (PSA—prostatic-specific antigen),"IL-10 inhibition of NO, TNF-α and IL-12 p40 generation in pretreated BMDM",[3],did not show these effects
chondroitin sulfate,effect of glycosaminoglycan on KLK2 activity,[1],inhibitory
dermatan sulfate,effect of glycosaminoglycan on KLK2 activity,[1],"activate KLK2 in sub- and micromolar concentrations, respectively"
heparan sulfate,effect of glycosaminoglycan on KLK2 activity,[1],"activate KLK2 in sub- and micromolar concentrations, respectively"
heparin,effect of glycosaminoglycan on KLK2 activity,[1],almost no effect
B1,"generation of NO, TNF-α and IL-12 p40 in LPS/IFN-γ activated BMDM","[3]; IL-10 10 ng/mL, LPS 200 ng/mL / IFN-γ 100 U/mL","reduced the generation of NO, TNF-α, and IL-12 p40"
